Test results as given in patent US10160771B2, “Hepatitis C virus inhibitors and uses thereof in preparation of drugs” (priority 2014, dated 2018).
pEC50: −log10 of the molar value.

Assays:
[1] = test system: HCV genotype 1a (HCV-1a) replicon cells; experiment: HCV genotype 1a replicon luciferase assay (EC50); format: cell-based, hepatitis C virus genotype 1a (H77 clone); conditions: Hepatitis C virus, 72 h, 3 days, luciferase (Bright-Glo)
Outline: (§1)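 Stable subgenomic replicon cells (1a: H77 with K1691R, K2040R, S2204I; 1b: Con1 with E1202G, T1280I, K1846T) carrying luciferase and neo were seeded at 8000 cells/well onto compounds (5-fold, 6-point, top 100, 10 or 1 nM; 0.5% DMSO) for 3 days at 37 °C. Bright-Glo luminescence gave EC50 by nonlinear fit.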

[2] = Cell Titer-fluor cell activity assay in HCV-1b replicon cells (CC50); format: cell-based
Procedure: The EC50 and CC50 values of anti-HCV compounds were determined by HCV genotype 1a (HCV-1a) and 1B (HCV-1b) stable transfer replication (replicon) cells. The source of genotype 1a replicon is H77 clones containing K1691R, K2040R and S2204I adaptive mutations. The source of genotype 1b replicon is Con1 clones containing E1202G, T1280I and K1846T adaptive mutations.
HCV Replicon Cell Lines: HCV-1a and HCV-1b Cells
The compound powder was dissolved in 100% DMSO. Then the compound was diluted 5 times with 6 points, and added into the cell plate with Echo liquid handler. Ensure the final concentration of DMSO was 0.5%. Each compound was tested in double holes. Maximum initial concentration was 100, 10 or 1 nM, 5 times dilution, 6 points.
b) Cell Culture (HCV-1a or HCV-1b Replicon Cell):
1) absorbing the culture supernatant of the cell culture and washing the cells with 10 mL PBS.
2) adding preheated pancreatin to the washed cell culture flasks, rotating culture bottle to make the bottom of the culture bottle uniformly covered by pancreatin, then placed into 37° C., 5% CO2 incubator to digest.
3) suspending cells in each T150 culture flask with 10-15 mL culture medium, absorbing 0.1 mL liquid and diluting 2 times by trypan blue solution as counted.
4) diluting cells to 8×10^4/mL with the culture medium, adding the diluted cells into the compound-containing 96-well plate (Greiner, Cat.#655090) (100 μL/well, 8000 cells/well) with automatic liquid separator (Thermo Scientific). Then place into a 37° C., 5% CO2 incubator for 3 days. Cell control well: no compound, only containing 0.5% DMSO.
5) adding chemiluminescent substrate Cell Titer-fluor to the cell well, after incubation for 30 minutes, detecting the signal by chemiluminescence detection system Envison (Ex at 405 nm and read at 515 nm). The effect of the compounds on the activity of HCV replicon cells was analyzed according to the luminescence data, which was used to calculate the CC50 values.
The EC50 or CC50 values were obtained by nonlinear fitting analysis on inhibition percentage (inh %) data with GraphPad Prism software.

[3] = test system: HCV genotype 1b (HCV-1b) replicon cells; experiment: HCV genotype 1b replicon luciferase assay (EC50); format: cell-based, hepatitis C virus genotype 1b (Con1 clone); conditions: Hepatitis C virus, 72 h, 3 days, luciferase (Bright-Glo)
Outline: as §1

Q: With `COC(=O)N[C@H](C(=O)N1CCC[C@H]1c1ncc(-c2ccc(-c3ccc(-c4cnc(C5C6CCC(C6)[C@H]5C(=O)NCc5ccccn5)[nH]4)cc3)cc2)[nH]1)[C@@H](C)OC` (stereo partly drawn) [AA_221_A] as the compound, how does the pEC50 [1] read?
A: Its pEC50 is 8.00 to 9.00.

Q: What about the CC50 at 3 days [2] of the same compound?
A: Its CC50 at 3 days is greater than 1 nM.

Q: What about the pEC50 [3] of the same compound?
A: The pEC50 was 10.00 to 12.00.

Q: With `COC(=O)N[C@H](C(=O)N1CCC[C@H]1c1ncc(-c2ccc(-c3ccc(-c4cnc([C@H]5C6CCC(C6)[C@@H]5C(=O)NCc5cnccn5)[nH]4)cc3)cc2)[nH]1)C(C)C` (stereo partly drawn) [AA_206_A] as the compound, how does the pEC50 [1] read?
A: Its pEC50 is 9.00 to 10.00.

Q: What about the CC50 at 3 days [2] of the same compound?
A: Its CC50 at 3 days is greater than 1 nM.

Q: What about the pEC50 [3] of the same compound?
A: Its pEC50 is 10.00 to 12.00.

Q: With `COC(=O)N[C@H](C(=O)N1CCC[C@H]1c1ncc(-c2ccc(-c3ccc(-c4cnc(C5C6CCC(C6)[C@H]5C(=O)N(C)c5ccccn5)[nH]4)cc3)cc2)[nH]1)[C@@H](C)OC` (stereo partly drawn) [AA_247_B] as the compound, how does the pEC50 [1] read?
A: Its pEC50 is 8.00 to 9.00.

Q: And the CC50 at 3 days [2]?
A: Its CC50 at 3 days is greater than 1 nM.

Q: What about the pEC50 [3] of the same compound?
A: The pEC50 was 10.00 to 12.00.

Q: With `COC(=O)N[C@H](C(=O)N1CCC[C@H]1c1ncc(-c2ccc(-c3ccc(-c4cnc(C5C6CCC(C6)[C@H]5C(=O)NC(C)c5cnccn5)[nH]4)cc3)cc2)[nH]1)[C@@H](C)OC` (stereo partly drawn) [AA_281_B] as the compound, how does the pEC50 [1] read?
A: The pEC50 was 9.00 to 10.00.

Q: And the CC50 at 3 days [2]?
A: Its CC50 at 3 days is greater than 1 nM.

Q: What about the pEC50 [3] of the same compound?
A: The pEC50 was 10.00 to 12.00.

Q: With `COC(=O)N[C@H](C(=O)N1CCC[C@H]1c1ncc(-c2ccc(-c3ccc(-c4cnc([C@@H]5[C@H]6CC[C@H](C6)[C@H]5C(=O)N[C@@H](C)c5cccnc5)[nH]4)cc3)cc2)[nH]1)C(C)C` [AA_204_ENDOA2_A] as the compound, how does the pEC50 [1] read?
A: The pEC50 was 10.00 to 12.00.

Q: And the CC50 at 3 days [2]?
A: The CC50 at 3 days was greater than 1 nM.

Q: And the pEC50 [3]?
A: Its pEC50 is 10.00 to 12.00.

Q: With `COC(=O)N[C@H](C(=O)N1CCC[C@H]1c1ncc(-c2ccc(-c3ccc(-c4[nH]c(C5CCCN5C(=O)[C@@H]5COC(=O)N5)c5c4CCC5)cc3)cc2)[nH]1)C(C)C` (stereo partly drawn) [AG_084_A] as the compound, how does the pEC50 [1] read?
A: The pEC50 was 8.00 to 9.00.

Q: What about the CC50 at 3 days [2] of the same compound?
A: The CC50 at 3 days was greater than 1 nM.

Q: What about the pEC50 [3] of the same compound?
A: Its pEC50 is 9.00 to 10.00.

Q: Which results are given for `COC(=O)N[C@H](C(=O)N1CCC[C@H]1c1ncc(-c2ccc(-c3ccc(-c4cnc([C@@H]5C6CCC(C6)[C@H]5C(=O)NCCO)[nH]4)cc3)cc2)[nH]1)C(C)C` (stereo partly drawn) [AA_193]?
A: pEC50 [1]: 8.00 to 9.00; CC50 at 3 days [2]: > 1 nM; pEC50 [3]: 10.00 to 12.00

Q: With `COC(=O)N[C@H](C(=O)N1CCC[C@H]1c1ncc(-c2ccc(-c3ccc(-c4cnc([C@H]5C6CCC(C6)[C@@H]5C(=O)NCc5ccc(C(F)(F)F)nc5)[nH]4)cc3)cc2)[nH]1)C(C)C` (stereo partly drawn) [AA_232_A] as the compound, how does the pEC50 [1] read?
A: Its pEC50 is 8.00 to 9.00.

Q: And the CC50 at 3 days [2]?
A: The CC50 at 3 days was greater than 1 nM.

Q: What about the pEC50 [3] of the same compound?
A: The pEC50 was 10.00 to 12.00.

Q: With `COC(=O)N[C@H](C(=O)N1CCC[C@@H]1c1[nH]c(-c2ccc(-c3ccc(-c4cnc([C@@H]5CCCN5C(=O)[C@@H](NC(=O)OC)[C@@H](C)OC)[nH]4)cc3)cc2)c2c1COC2)C(C)OC` (stereo partly drawn) [AG_080_B] as the compound, how does the pEC50 [1] read?
A: Its pEC50 is 8.00 to 9.00.

Q: What about the CC50 at 3 days [2] of the same compound?
A: The CC50 at 3 days was greater than 5 nM.

Q: What about the pEC50 [3] of the same compound?
A: The pEC50 was 9.00 to 10.00.

Q: With `COC(=O)N[C@H](C(=O)N1CCC[C@H]1c1cnc(-c2ccc(-c3ccc(-c4ncc(C5C6CCC(C6)[C@H]5C(=O)N(NC(=O)OC)C(C)C)[nH]4)cc3)cc2C)[nH]1)C(C)C` (stereo partly drawn) [AA_169_A] as the compound, how does the pEC50 [1] read?
A: Its pEC50 is 8.00 to 9.00.

Q: And the CC50 at 3 days [2]?
A: The CC50 at 3 days was greater than 5 nM.

Q: And the pEC50 [3]?
A: Its pEC50 is 10.00 to 12.00.

Q: With `COC(=O)N[C@H](C(=O)N1CCC[C@H]1c1ncc(-c2ccc(-c3ccc(-c4cnc([C@H]5C6CCC(C6)[C@@H]5C(=O)NCc5ccc(OC)nc5)[nH]4)cc3)cc2)[nH]1)C(C)C` (stereo partly drawn) [AA_200_A] as the compound, how does the pEC50 [1] read?
A: The pEC50 was 8.00 to 9.00.

Q: What about the CC50 at 3 days [2] of the same compound?
A: Its CC50 at 3 days is greater than 1 nM.

Q: And the pEC50 [3]?
A: The pEC50 was 10.00 to 12.00.

Q: With `COC(=O)N[C@H](C(=O)N1CCC[C@H]1c1ncc(-c2ccc(-c3ccc(-c4cnc(C5C6CCC(C6)[C@@H]5c5nc(-c6cccnc6)c[nH]5)[nH]4)cc3)cc2)[nH]1)C(C)C` (stereo partly drawn) [AA_242] as the compound, how does the pEC50 [1] read?
A: Its pEC50 is 7.00 to 8.00.

Q: What about the CC50 at 3 days [2] of the same compound?
A: Its CC50 at 3 days is greater than 1 nM.

Q: What about the pEC50 [3] of the same compound?
A: Its pEC50 is 9.00 to 10.00.

Q: What does the source list for `COC(=O)N[C@H](C(=O)N1CCC[C@H]1c1ncc(-c2ccc(-c3ccc(-c4cnc([C@@H]5C6CCC(C6)[C@H]5C(=O)NCc5ccco5)[nH]4)cc3)cc2)[nH]1)C(C)C` (stereo partly drawn) [AA_198_B]?
A: pEC50 [1]: 7.00 to 8.00; CC50 at 3 days [2]: > 1 nM; pEC50 [3]: 10.00 to 12.00

Q: With `COC(=O)NC(C(=O)N1CCC[C@@H]1c1[nH]c(-c2ccc(-c3ccc(-c4cnc([C@@H]5CCCN5C(=O)[C@@H](NC(=O)OC)[C@@H](C)OC)[nH]4)cc3)cc2)c2c1CCC2)[C@@H](C)OC` (stereo partly drawn) [AG_068_B] as the compound, how does the pEC50 [1] read?
A: Its pEC50 is 7.00 to 8.00.

Q: And the CC50 at 3 days [2]?
A: Its CC50 at 3 days is greater than 1 nM.

Q: And the pEC50 [3]?
A: The pEC50 was 9.00 to 10.00.
